Where “and” joins values, the source holds several entries; their conditions need not be identical. Equal values may be shown once. Entries after “also recorded” stand apart in the source; their conditions may differ. Read-outs that look alike come from different tables or passages of the source.
Tests used:
[1] = system: 201T cells; test: MTS cell viability assay, 201T; assay type: cell-based, human
Procedure: (§1) NSCLC cell lines (201T and H1975) were transfected with CS3D or CS3M (cyclic STAT3 mutant decoy) at concentrations ranging from 0 nM to 600 nM. Using MTS assays, cell viabilities were assessed 72 hours later. Three independent experiments were performed, using 24-well plates and 4 wells/concentration.
(§2) To determine the concentration of CS3D required to inhibit cell viability, increasing concentrations of CS3D was transfected, and after 72 hours, MTS assays were used to assess cell viability. Data were normalized to cells treated with lipofectamine alone.
(§3) Fluorescently-labeled CS3M and CS3D (with iFluor) were also produced using enzymatic ligation as described above and used to assess uptake efficiency. Transfections of the cyclic oligonucleotides were performed using Lipofectamine 2000 (Life Technologies) in opti-MEM media (Life Technologies) as follows: Cells were plated at […] confluency, and exposed to transfection media containing the respective circularized oligonucleotides for 24 hours at 37° C. Post-transfection, cell recovery was initiated in media containing 10% heat-inactivated fetal bovine serum.
Dose-response experiments assessing the relative number of metabolically active viable cells were performed by transfecting cells with increasing concentrations of CS3D or CS3M, followed by performance of MTS assays. After 72 hours, 5 mg/ml of MTS reagent was added in the plates and incubated 37° C. for 20 minutes. The plates were then read at 490 nm in a Synergy microplate reader (BioTek, Winooski, Vermont) using Gen5 2.05 software. Data obtained following treatment with C3SD or CS3M were normalized to treatment with lipofectamine alone. […] To assess induction of apoptosis in response to CS3D, H1975 and 201T cells were transfected with 100 nM of CS3M or CS3D. After twenty four hours of transfection, cells were resuspended in annexin V-binding buffer, incubated with 5 μL of propidium iodide (BD Biosciences) and subjected to flow cytometric analysis, using a BD FACS Canto II Flow Cytometer.

[2] = system: M1 macrophages, M2 macrophages, MDSCs; test: Flow cytometry of immune cells isolated from lungs of NNK mice; assay type: in vivo
Source text: STAT3 also plays a central role in immune evasion. STAT3 specifically orchestrates immunosuppression by promoting M2 macrophage and myeloid-derived suppressor cells (MDSCs) activity while suppressing M1 macrophage function [Su et al. Int. J. Mol. Science 19: pll:E1803, 2018]. Thus STAT3 inhibition by CS3D should favor an antitumor immune response by enhancing M1 macrophage activity.
Lungs from mice were digested with RPMI media containing collagenase and DNase to obtained single cell suspension. The cells were counted and 1×10^6 cells were staining with fluorescent labeled CD45, CD11b, MHC II, Ly6C and F4/80. The labeled cells were gated and data acquired on LSR fortessa (BD Biosciences) and further analysed by Flowjo.

[3] = system: A549 cells
Procedure: as §1, §2
as §3, with “Post-transfection, cell recovery was initiated in media containing 10% heat-inactivated fetal bovine serum.” left out
Dose-response experiments assessing the relative number of metabolically active viable cells were performed by transfecting cells with increasing concentrations of CS3D or CS3M, followed by performance of MTS assays. […] The plates were then read at 490 nm in a Synergy microplate reader (BioTek, Winooski, Vermont) using Gen5 2.05 software. […]

[4] = target: T1, pSTAT3-ubiquitin complexes in H1975 cells (Homo sapiens, UniProt P40763); test: p-STAT3 immunoprecipitation and ubiquitin immunoblot; assay type: cell-based; conditions: H1975, 100 nM, 24 hr post-transfection
T1 construct: Post-transfection with either 100 nM CS3D or CS3M, H1975 were lysed in IP lysis buffer; endogenous in cells; host or cells: H1975

[5] = system: NNK-induced lung preneoplasias and tumors; test: NNK-induced lung tumor model for chemoprevention, second experiment; assay type: in vivo, mice
Procedure: To confirm these findings, in a second experiment, in which 24 mg NNK was given (3 mg by ip injection, twice a wk, ×4 wks,), this was followed by one week rest and then immediate treatment with 5 mg/kg CS3D or CS3M, 3 daily injections per week, for 8 weeks. Then 1 week, 8 weeks, or 20 weeks after the end of the treatment course ([…], 21, and 33 weeks after beginning the NNK exposure), necropsy was performed. […] Lung tumors were evaluated by inspecting formalin-fixed lungs visually and by histology after H & E staining. […] Tumor burden (detected by neoplastic growths [adenomas] observed in lung sections) was also assessed at the week 1 timepoint after treatment. Consistent with reduction in preneoplasia, we observed a decrease in the average number of tumors (a 60% reduction in tumors in the CS3D-treated animal) (FIG. 14A).
The chemopreventive effect of CS3D compared to CS3M on lung tumor development was studied in an NNK-induced immunocompetent lung tumor model using the tobacco carcinogen, 4-(methylnitrosamino)-1-(3-pyridyl)-1-butanone, CAS Reg. No. 64091-91-4 (NNK) in mice. The advantages of this model are: NNK is an inducer of KRAS mutations, it is known to induce lung cancers in mice and humans, and the model is immunocompetent. In addition, this is a useful model for studying chemoprevention after exposure to a carcinogenic agent (Hecht S S, et al, Cancer Res. (1980) 40(2):298-302).
After four weeks of NNK exposure, mice are then dosed IV 2 times per week with CS3D or CS3M (5 mg/kg) for eight weeks. The mice are sacrificed after at one week, 8 weeks, and 20 weeks after the end of oligonucleotide dosing to examine lungs. Lungs are formalin-inflated and surface tumors are enumerated visually under a dissecting microscope. The area of each tumor is measured with a analysis tool built in the imaging software LAS v4.7 (Leica). Lungs are also sectioned and examined histologically by hematoxylin and eosin staining for counting the preneoplasia and tumors.

[6] = system: NSCLC cells (H1975 and 201T); test: Annexin V/propidium iodide apoptosis by flow cytometry; assay type: cell-based, human
Procedure: Statistical significance was determined as *P<0.05, n=3.
Dose-response experiments assessing the relative number of metabolically active viable cells were performed by transfecting cells with increasing concentrations of CS3D or CS3M, followed by performance of MTS assays. After 72 hours, 5 mg/ml of MTS reagent was added in the plates and incubated 37° C. for 20 minutes. The plates were then read at 490 nm in a Synergy microplate reader (BioTek, Winooski, Vermont) using Gen5 2.05 software. Data obtained following treatment with C3SD or CS3M were normalized to treatment with lipofectamine alone. […] After twenty four hours of transfection, cells were resuspended in annexin V-binding buffer, incubated with 5 μL of propidium iodide (BD Biosciences) and subjected to flow cytometric analysis, using a BD FACS Canto II Flow Cytometer.

[7] = NNK 4 weeks then 1 week of drug administration

T1 sequence (P40763 2-770 limits assumed, one chain of several): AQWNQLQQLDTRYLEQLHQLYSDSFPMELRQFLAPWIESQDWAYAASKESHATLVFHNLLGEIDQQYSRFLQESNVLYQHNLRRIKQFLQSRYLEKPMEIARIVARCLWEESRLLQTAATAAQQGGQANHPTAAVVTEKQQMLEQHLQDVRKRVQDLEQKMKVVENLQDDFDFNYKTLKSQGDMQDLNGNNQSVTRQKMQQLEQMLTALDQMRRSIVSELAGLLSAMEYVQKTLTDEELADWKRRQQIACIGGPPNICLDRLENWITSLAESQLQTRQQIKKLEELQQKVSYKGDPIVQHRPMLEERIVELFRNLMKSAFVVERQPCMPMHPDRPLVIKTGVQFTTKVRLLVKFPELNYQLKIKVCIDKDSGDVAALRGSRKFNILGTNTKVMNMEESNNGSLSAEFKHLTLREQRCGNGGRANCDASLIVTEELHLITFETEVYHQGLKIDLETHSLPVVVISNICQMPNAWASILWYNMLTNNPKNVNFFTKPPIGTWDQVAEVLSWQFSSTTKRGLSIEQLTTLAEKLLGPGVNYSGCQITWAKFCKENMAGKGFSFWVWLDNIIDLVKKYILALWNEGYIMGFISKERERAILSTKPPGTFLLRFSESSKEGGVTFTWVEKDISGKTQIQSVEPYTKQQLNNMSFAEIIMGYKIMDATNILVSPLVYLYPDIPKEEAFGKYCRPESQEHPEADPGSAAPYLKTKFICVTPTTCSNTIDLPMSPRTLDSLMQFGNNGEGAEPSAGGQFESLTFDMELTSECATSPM

CS3D (DNA GATTTACGGGAAATGCSCATTTCCC; cyclic decoy with two hexaethylene glycol linkers, further chemistry not given here)
inhibition in proliferation ([1]; 0.3 μM transfection, 201T, relative to CS3M): 50%
IC50 ([1]; 201T (WT EGFR), MTS 72 hours, read-out: IC50): ~300 nM
IC50 ([1]; 201T, EGFR WT, KRAS WT, MTS at 72 hours after transfection, read-out: CS3D IC50): 300 nM
M2 macrophages [2, 7]: 5.53%
MDSCs [2, 7]: 14.2%
proportion of M1 macrophages in the lung TME ([2]; NNK 4 weeks then 1 week of drug, vs CS3M): increasing
IC50 [3]: 300 nM
ratio of pSTAT3-ubiquitin complex to STAT3 (densitometry) [4]: 0.95
toxicity (body weight, behavior, liver and spleen) ([5]; 5 mg/kg for 8 weeks): no body weight changes were observed; also recorded: no toxicity observed
higher count of preneoplasia ([5]; 8 weeks after treatment ended, vs CS3M): 43%
lower number of adenomas ([5]; 8 weeks post-treatment, vs CS3M): 52%
reduction in average number of tumors per animal ([5]; 20 weeks after end of treatment, vs CS3M): approximately 40% and 42%
lower tumor size ([5]; 20 weeks post-treatment, vs CS3M): 49.8% and 50%
fewer preneoplasias on average per animal ([5]; week 1 after 8 week treatment, 5 mg/kg, vs CS3M): approximately 25%
reduction in average number of tumors ([5]; week 1 after 8 week treatment, vs CS3M): 60%
increase in number of cells undergoing apoptosis ([6]; 100 nM, 24 h, compared to CS3M): 2 fold
increase in the percent of apoptotic cells ([6]; 201T and H1975, relative to CS3M): 2 fold
increase in number of apoptotic cells ([6]; one transfection, all 4 cell lines): 2 fold
